Common to all, as to type: biochemical
In experiment [1] the target is PKC alpha kinase (Homo sapiens, UniProt P17252). As to the kind of experiment: PKC alpha kinase inhibition, coupled-enzyme NADH absorbance assay (Ki). As to conditions: 130 μM ATP, 4.5 nM PKC alpha, 30° C.; read-out: Ki PKC alpha. On the procedure:
An assay buffer solution was prepared which consisted of 100 mM HEPES (pH 7.5), 10 mM MgCl2, 25 mM NaCl, 0.1 mM EDTA, 100 μM CaCl2 and 0.01% Brij. […] To 16 μL of this enzyme buffer, in a 384 well plate, was added 1 μL of VRT stock solution in DMSO. The mixture was allowed to equilibrate for 10 mins at 30° C. The enzyme reaction was initiated by the addition of 16 μL stock ATP solution prepared in assay buffer to a final assay concentration of 130 μM. Initial rate data was determined from the rate of change of absorbance at 340 nm (corresponding to stoichiometric consumption of NADH) using a Molecular Devices Spectramax plate reader (Sunnyvale, Calif.) over 15 mins at 30° C. […] Ki values were calculated from initial rate data by non-linear regression using the Prism software package (Prism 4.0a, Graphpad Software, San Diego, Calif.).

The target of experiment [2] is PKC delta kinase (Homo sapiens, UniProt Q05655). Kind of experiment: PKC delta kinase inhibition, coupled-enzyme NADH absorbance assay (Ki). The following applies: 150 μM ATP, 46 nM PKC delta, 30° C.; read-out: Ki PKC delta. As for the experimental part: An assay buffer solution was prepared which consisted of 100 mM HEPES (pH 7.5), 10 mM MgCl2, 25 mM NaCl, 0.1 mM EDTA and 0.01% Brij. […] To 16 μL of this enzyme buffer, in a 384 well plate, was added 1 μL of VRT stock solution in DMSO. The mixture was allowed to equilibrate for 10 mins at 30° C. […] Ki values were calculated from initial rate data by non-linear regression using the Prism software package (Prism 4.0a, Graphpad Software, San Diego, Calif.).

Experiment [3] deals with PKC theta kinase (Homo sapiens, UniProt Q04759). As to the kind of experiment: PKC theta kinase inhibition, coupled-enzyme NADH absorbance assay (Ki). The following applies: 240 μM ATP, 18 nM PKC theta, 30° C.; read-out: Ki PKC theta. On the procedure:
An assay buffer solution was prepared which consisted of 100 mM HEPES (pH 7.5), 10 mM MgCl2, 25 mM NaCl, 0.1 mM EDTA and 0.01% Brij. […] To 60 μL of this enzyme buffer, in a 384 well plate, was added 2 μL of VRT stock solution in DMSO. The mixture was allowed to equilibrate for 10 mins at 30° C. […] Ki values were calculated from initial rate data by non-linear regression using the Prism software package (Prism 4.0a, Graphpad Software, San Diego, Calif.).

Each structure is given as a SMILES string.

PKC theta kinase, sequence (Q04759 whole entry): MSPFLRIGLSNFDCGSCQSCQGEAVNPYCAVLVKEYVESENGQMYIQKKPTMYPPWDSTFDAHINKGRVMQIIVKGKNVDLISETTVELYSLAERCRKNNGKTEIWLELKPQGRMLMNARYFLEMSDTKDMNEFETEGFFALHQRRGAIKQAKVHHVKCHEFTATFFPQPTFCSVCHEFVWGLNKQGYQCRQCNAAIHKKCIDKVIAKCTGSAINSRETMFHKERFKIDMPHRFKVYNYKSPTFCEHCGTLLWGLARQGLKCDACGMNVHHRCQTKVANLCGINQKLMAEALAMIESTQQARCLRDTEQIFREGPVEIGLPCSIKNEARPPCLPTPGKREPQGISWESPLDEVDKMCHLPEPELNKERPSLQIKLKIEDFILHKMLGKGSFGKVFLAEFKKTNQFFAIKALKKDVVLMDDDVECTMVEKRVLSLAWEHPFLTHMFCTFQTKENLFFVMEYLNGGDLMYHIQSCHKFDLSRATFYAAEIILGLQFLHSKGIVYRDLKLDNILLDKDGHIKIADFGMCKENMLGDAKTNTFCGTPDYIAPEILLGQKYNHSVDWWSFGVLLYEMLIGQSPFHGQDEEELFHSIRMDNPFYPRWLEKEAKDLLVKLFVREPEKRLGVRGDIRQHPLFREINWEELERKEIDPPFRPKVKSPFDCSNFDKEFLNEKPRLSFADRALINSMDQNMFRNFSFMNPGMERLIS
PKC delta kinase, sequence (Q05655 whole entry): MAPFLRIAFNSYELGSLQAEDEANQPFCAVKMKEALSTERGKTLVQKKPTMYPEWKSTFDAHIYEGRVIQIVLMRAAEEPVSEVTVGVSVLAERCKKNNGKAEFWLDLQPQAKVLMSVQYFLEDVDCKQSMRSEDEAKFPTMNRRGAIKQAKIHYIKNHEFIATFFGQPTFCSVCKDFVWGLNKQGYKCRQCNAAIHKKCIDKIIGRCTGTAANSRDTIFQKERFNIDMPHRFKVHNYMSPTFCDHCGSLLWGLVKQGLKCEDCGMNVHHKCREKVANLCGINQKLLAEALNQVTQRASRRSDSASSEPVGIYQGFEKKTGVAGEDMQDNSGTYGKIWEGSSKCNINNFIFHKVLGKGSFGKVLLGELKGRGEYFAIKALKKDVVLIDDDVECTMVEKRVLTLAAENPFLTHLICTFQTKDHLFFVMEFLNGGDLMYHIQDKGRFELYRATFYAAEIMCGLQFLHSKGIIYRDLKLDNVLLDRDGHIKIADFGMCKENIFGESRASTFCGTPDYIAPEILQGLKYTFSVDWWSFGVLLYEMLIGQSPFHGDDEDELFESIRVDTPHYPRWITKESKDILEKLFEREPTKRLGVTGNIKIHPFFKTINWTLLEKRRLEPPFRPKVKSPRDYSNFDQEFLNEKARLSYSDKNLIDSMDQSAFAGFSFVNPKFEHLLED

`Cc1cc(-c2ccnc3[nH]ncc23)cc(C(N)C2CC2(F)F)c1` (stereo not drawn) [Compound 250]: the Ki in experiment [1] is < 500 nM; in experiment [2], < 2800 nM; in experiment [3], < 500 nM.

For `Cc1cc(-c2ccnc3[nH]nc(C(F)(F)F)c23)cc(C2(CN)CCC2)c1` [Compound 215], the Ki was < 500 nM in experiment [1], < 500 nM in experiment [2] and < 50 nM in experiment [3].

As for `CCSc1cc(-c2ccnc3[nH]ncc23)cc(C(C)(C#N)CC)c1` (stereo not drawn) [Compound 102], the Ki in experiment [1] is < 2800 nM; in experiment [2], > 2000 nM; in experiment [3] it was < 500 nM.

Regarding `NCc1cccc(-c2ccnc3[nH]nc(C4CC4)c23)c1` [Compound 269], the Ki in experiment [1] was > 1200 nM; in experiment [2], > 1200 nM; in experiment [3] it was > 700 nM.

Regarding `CCC(C)(C#N)c1cc(-c2ccnc3[nH]ncc23)cc(C(C)F)c1` (stereo not drawn) [Compound 105], the results for the Ki in experiment [1], in experiment [2] and in experiment [3] were < 2800 nM, > 2000 nM and < 500 nM, respectively.

On to `CCC(C)(C#N)c1cc(Br)cc(-c2ccnc3[nH]ncc23)c1` (stereo not drawn) [Compound 30], for which the Ki in experiment [1] was < 2800 nM; in experiment [2], < 2800 nM; in experiment [3], < 500 nM.

For the molecule `OCC1(c2cccc(-c3ccnc4[nH]ncc34)c2)CCNC1` (stereo not drawn) [Compound 196], the values for the Ki in experiment [1], in experiment [2] and in experiment [3] were < 2800 nM, < 2800 nM and < 50 nM, respectively.

`COCCC(C)(CN)c1cccc(-c2ccnc3[nH]nc(C(F)(F)F)c23)c1` (stereo not drawn) [Compound 285]: the Ki in experiment [1] is < 500 nM; in experiment [2] it was < 500 nM; in experiment [3], < 50 nM.

`CCc1n[nH]c2nccc(-c3cccc(C(C)(CC)CN)c3)c12` (stereo not drawn) [Compound 264]: the Ki in experiment [1], in experiment [2] and in experiment [3] was < 50 nM throughout.

As for `NCC1(c2cc(F)cc(-c3ccnc4[nH]ncc34)c2)CCC1` [Compound 188], the Ki in experiment [1] was < 500 nM; in experiment [2], < 2800 nM; in experiment [3] it was < 50 nM.

For `CCC(C)(CN)c1cc(Br)cc(-c2ccnc3[nH]ncc23)c1` (stereo not drawn) [Compound 167], the values for the Ki in experiment [1], in experiment [2] and in experiment [3] were < 500 nM, < 500 nM and < 50 nM, respectively.

Take `CCC(N)c1cccc(-c2ccnc3[nH]ncc23)c1` (stereo not drawn) [Compound 245]: the Ki in experiment [1] was > 1200 nM; in experiment [2], > 1200 nM; in experiment [3], < 500 nM.

With `NC(CCC1CCCC1)c1cccc(-c2ccnc3[nH]ncc23)c1` (stereo not drawn) [Compound 253], the Ki in experiment [1] was > 1200 nM; in experiment [2], > 1200 nM; in experiment [3], > 700 nM.

Turning to `Cc1cc(-c2ccnc3[nH]nc(Cl)c23)cc(C2(CN)CCC2)c1` [Compound 207], the Ki in experiment [1] was < 500 nM; in experiment [2], < 500 nM; in experiment [3], < 50 nM.

As to `CCC(C)(C#N)c1cc(CCN)cc(-c2ccnc3[nH]ncc23)c1` (stereo not drawn) [Compound 127], the Ki in experiment [1] is > 1200 nM; in experiment [2] it was > 2000 nM; in experiment [3] it was < 500 nM.

Consider `CCC(CC)(CN)c1cccc(-c2ccnc3[nH]ncc23)c1` [Compound 47], for which the Ki is < 500 nM in experiment [1], < 500 nM in experiment [2] and < 50 nM in experiment [3].

Consider `NCC1(c2cccc(-c3ccnc4[nH]ncc34)c2)CC1` [Compound 153], for which the Ki was < 2800 nM in experiment [1], < 2800 nM in experiment [2] and < 50 nM in experiment [3].

On to `C=CCc1cc(-c2ccnc3[nH]ncc23)cc(C(C)(C)CN)c1` [Compound 52], for which the Ki is < 2800 nM in experiment [1], < 2800 nM in experiment [2] and < 500 nM in experiment [3].

`N#CC(c1cccc(-c2ccnc3[nH]ncc23)c1)N1CCOCC1` (stereo not drawn) [Compound 320]: the Ki is > 1200 nM in experiment [1], > 1200 nM in experiment [2] and > 700 nM in experiment [3].

`CCC(C)(CN)c1cc(CCC(F)F)cc(-c2ccnc3[nH]ncc23)c1` (stereo not drawn) [Compound 161]: the Ki was < 2800 nM in experiment [1], > 2000 nM in experiment [2] and < 500 nM in experiment [3].

`CC1(c2cccc(-c3ccnc4[nH]ncc34)c2)CCNC1` (stereo not drawn) [Compound 195]: the Ki in experiment [1] was < 2800 nM; in experiment [2], < 500 nM; in experiment [3], < 50 nM.

For `NCC1(c2cccc(-c3ccnc4[nH]nc(C(F)(F)F)c34)c2)CCC1` [Compound 280], the Ki was < 500 nM in experiment [1], < 500 nM in experiment [2] and < 50 nM in experiment [3].

For `CCC1(c2cc(C)cc(-c3ccnc4[nH]nc(C(F)(F)F)c34)c2)CNC(=S)O1` (stereo not drawn) [Compound 296], the Ki in experiment [1] is < 500 nM; in experiment [2] it was > 1200 nM; in experiment [3], < 50 nM.

With `N#CC1(c2cc(-c3ccnc4[nH]nc(C(F)(F)F)c34)cc(C(F)(F)CN)c2)CC1` [Compound 311], the Ki in experiment [1] is < 500 nM; in experiment [2], < 500 nM; in experiment [3], < 50 nM.

On to `CC(C)=CC1(c2cccc(-c3ccnc4[nH]ncc34)c2)CCNC1` (stereo not drawn) [Compound 199], for which the Ki was < 500 nM in experiment [1], < 500 nM in experiment [2] and < 50 nM in experiment [3].

Take `C=CCC(C)(CN)c1cccc(-c2ccnc3[nH]ncc23)c1` (stereo not drawn) [Compound 134]: the Ki in experiment [1] is < 500 nM; in experiment [2] it was < 500 nM; in experiment [3], < 50 nM.

As for `N#CC1(c2cc(CCN)cc(-c3ccnc4[nH]ncc34)c2)CC1` [Compound 128], the Ki is > 1200 nM in experiment [1], > 2000 nM in experiment [2] and < 500 nM in experiment [3].

As to `COc1cc(-c2ccnc3[nH]ncc23)cc(C(C)(C)CN)c1` [Compound 142], the Ki in experiment [1] was < 2800 nM; in experiment [2] it was < 2800 nM; in experiment [3], < 500 nM.

Turning to `N#CC1(c2cccc(-c3ccnc4[nH]ncc34)c2)CCC1` [Compound 73], the Ki in experiment [1] was < 2800 nM; in experiment [2], < 2800 nM; in experiment [3], < 500 nM.

`CCC(C)(C#N)c1cc(C)cc(-c2ccnc3[nH]ncc23)c1` (stereo not drawn) [Compound 89]: the values for the Ki in experiment [1], in experiment [2] and in experiment [3] were < 2800 nM, < 2800 nM and < 500 nM, respectively.

Take `CCC(C)(C#N)c1cc(-c2ccnc3[nH]ncc23)cc(C(F)(F)F)c1` (stereo not drawn) [Compound 93]: the Ki in experiment [1] was < 2800 nM; in experiment [2], < 2800 nM; in experiment [3] it was < 500 nM.

For `OCC1(c2cccc(-c3ccnc4[nH]ncc34)c2)CC1` [Compound 243], the Ki in experiment [1] was > 1200 nM; in experiment [2] it was > 2000 nM; in experiment [3], < 500 nM.

On to `CC(C#N)(CC1CC1)c1cccc(-c2ccnc3[nH]ncc23)c1` (stereo not drawn) [Compound 80], for which the Ki in experiment [1] is < 2800 nM; in experiment [2] it was > 2800 nM; in experiment [3] it was < 500 nM.

As to `C/C=C\c1cc(-c2ccnc3[nH]ncc23)cc(C(C)(C#N)CC)c1` (stereo not drawn) [Compound 94], the Ki was > 2800 nM in experiment [1], > 2800 nM in experiment [2] and < 500 nM in experiment [3].

Regarding `CCCCNC(CC)c1cccc(-c2ccnc3[nH]ncc23)c1` (stereo not drawn) [Compound 247], the Ki in experiment [1] was > 1200 nM; in experiment [2], > 1200 nM; in experiment [3], < 500 nM.

Regarding `N#C[C@]1(c2cccc(-c3ccnc4[nH]ncc34)c2)C[C@H](N)C1` [Compound 229], the Ki in experiment [1] is < 500 nM; in experiment [2] it was < 500 nM; in experiment [3] it was < 50 nM.

As to `CC(O)Cc1cc(-c2ccnc3[nH]ncc23)cc(C(C)(C)C#N)c1` (stereo not drawn) [Compound 79], the values for the Ki in experiment [1], in experiment [2] and in experiment [3] were > 2800 nM, > 2800 nM and < 500 nM, respectively.

As for `CC(C)(CN)c1cccc(-c2ccnc3[nH]ncc23)c1` [Compound 31, 2-(3-(1H-pyrazolo[3,4-b]pyridin-4-yl)phenyl)-2-methylpropan-1-amine], the results for the Ki in experiment [1], in experiment [2] and in experiment [3] were < 2800 nM, < 500 nM and < 50 nM, respectively.

Regarding `Cc1cc(-c2ccnc3[nH]ncc23)cc(C2(Cc3ccccc3)CNC(=O)O2)c1` (stereo not drawn) [Compound 327], the Ki in experiment [1] was < 2800 nM; in experiment [2] it was > 1200 nM; in experiment [3], < 500 nM.

With `N#C[C@]1(c2cccc(-c3ccnc4[nH]ncc34)c2)C[C@@H](O)C1` [Compound 220], the results for the Ki in experiment [1], in experiment [2] and in experiment [3] were > 1200 nM, > 2000 nM and < 500 nM, respectively.

Take `C1=C(c2cccc(-c3ccnc4[nH]ncc34)c2)CNC1` [Compound 231]: the Ki in experiment [1] was < 2800 nM; in experiment [2] it was < 2800 nM; in experiment [3] it was < 500 nM.

With `CCCc1cc(-c2ccnc3[nH]ncc23)cc(C(C)(C)C#N)c1` [Compound 57], the Ki in experiment [1] is < 2800 nM; in experiment [2] it was > 2800 nM; in experiment [3], < 50 nM.

The record behind these values is patent US8173635B2, “Kinase inhibitors” (Vertex Pharmaceuticals Incorporated, priority 2007, dated 2012).
